Measured values taken from ChEMBL document CHEMBL3091426, “Synthesis and antitumor-evaluation of 1,3-selenazole-containing 1,3,4-thiadiazole derivatives” (Bioorg Med Chem Lett, 2013).
pIC50: −log10 of the molar value.

Assays:
L1210 = test: Antiproliferative activity against mouse L1210 cells by CCK-8 assay; type: functional, cell-based
MCF7 = test: Antiproliferative activity against human MCF7 cells by CCK-8 assay; type: functional, cell-based

SMILES: COc1cc(/C=N/c2nnc(SCc3c[se]c(-c4ccccc4)n3)s2)ccc1O
- pIC50 (L1210): < 4.00
- pIC50 (MCF7): 4.82

SMILES: Oc1ccccc1/C=N/c1nnc(SCc2c[se]c(-c3ccccc3)n2)s1
- pIC50 (L1210): 4.41
- pIC50 (MCF7): 4.82

SMILES: C(=N\c1nnc(SCc2c[se]c(-c3ccccc3)n2)s1)/c1ccccc1
- pIC50 (L1210): 4.33
- pIC50 (MCF7): 4.59

SMILES: Fc1ccc(/C=N/c2nnc(SCc3c[se]c(-c4ccccc4)n3)s2)cc1
- pIC50 (L1210): 4.24
- pIC50 (MCF7): 4.99

SMILES: Oc1ccc(/C=N/c2nnc(SCc3c[se]c(-c4ccccc4)n3)s2)c(O)c1
- pIC50 (L1210): 4.21
- pIC50 (MCF7): 5.07

SMILES: Oc1ccc(/C=N/c2nnc(SCc3c[se]c(-c4ccccc4)n3)s2)cc1
- pIC50 (L1210): < 4.00
- pIC50 (MCF7): 4.51

SMILES: O=[N+]([O-])c1ccc(/C=N/c2nnc(SCc3c[se]c(-c4ccccc4)n3)s2)cc1
- pIC50 (L1210): < 4.00
- pIC50 (MCF7): 4.31

SMILES: Brc1ccc(/C=N/c2nnc(SCc3c[se]c(-c4ccccc4)n3)s2)cc1
- pIC50 (L1210): 4.33
- pIC50 (MCF7): 4.83

SMILES: O=C(O)c1c[se]c(-c2ccccc2)n1
- pIC50 (L1210): 4.22
- pIC50 (MCF7): 4.78

SMILES: CN(C)c1ccc(/C=N/c2nnc(SCc3c[se]c(-c4ccccc4)n3)s2)cc1
- pIC50 (L1210): < 4.00
- pIC50 (MCF7): 4.10

SMILES: Cc1ccc(/C=N/c2nnc(SCc3c[se]c(-c4ccccc4)n3)s2)cc1
- pIC50 (L1210): 4.23
- pIC50 (MCF7): 5.12

SMILES: Clc1ccc(/C=N/c2nnc(SCc3c[se]c(-c4ccccc4)n3)s2)cc1
- pIC50 (L1210): 4.30
- pIC50 (MCF7): 5.40
